Reference: US9315498B2, “Arlethynyl derivatives” (Hoffmann-La Roche Inc., priority 2010, dated 2016)

Biological target: human mGlu5a receptor (Homo sapiens (Human), UniProt P41594)
Test: Intracellular Ca2+ mobilization assay (mGlu5 PAM)
Assay type: cell-based
Settings: for EC50: HEK-293 cells stably transfected with human mGlu5a, L-glutamate added at EC20 after pre-incubation with test compound, read-out: EC50 (nM) mGlu5PAM; for Emax: maximal response in % of the maximal stimulatory effect obtained with saturating concentrations of L-glutamate, read-out: Eff. (%)
Method in brief: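 HEK-293 cells stably expressing human mGlu5a at low level were loaded with Fluo-4AM and preincubated 10–30 min at 37 °C with 11-point half-log compound dilutions. L-glutamate was then added at its daily-determined EC20 (typically around 80 μM). Peak fluorescence minus basal, normalized to maximal glutamate effect, was fitted to give EC50, Hill slope and maximal response.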

human mGlu5a receptor, sequence (P41594 other isoform, or with tags, fused parts or gaps): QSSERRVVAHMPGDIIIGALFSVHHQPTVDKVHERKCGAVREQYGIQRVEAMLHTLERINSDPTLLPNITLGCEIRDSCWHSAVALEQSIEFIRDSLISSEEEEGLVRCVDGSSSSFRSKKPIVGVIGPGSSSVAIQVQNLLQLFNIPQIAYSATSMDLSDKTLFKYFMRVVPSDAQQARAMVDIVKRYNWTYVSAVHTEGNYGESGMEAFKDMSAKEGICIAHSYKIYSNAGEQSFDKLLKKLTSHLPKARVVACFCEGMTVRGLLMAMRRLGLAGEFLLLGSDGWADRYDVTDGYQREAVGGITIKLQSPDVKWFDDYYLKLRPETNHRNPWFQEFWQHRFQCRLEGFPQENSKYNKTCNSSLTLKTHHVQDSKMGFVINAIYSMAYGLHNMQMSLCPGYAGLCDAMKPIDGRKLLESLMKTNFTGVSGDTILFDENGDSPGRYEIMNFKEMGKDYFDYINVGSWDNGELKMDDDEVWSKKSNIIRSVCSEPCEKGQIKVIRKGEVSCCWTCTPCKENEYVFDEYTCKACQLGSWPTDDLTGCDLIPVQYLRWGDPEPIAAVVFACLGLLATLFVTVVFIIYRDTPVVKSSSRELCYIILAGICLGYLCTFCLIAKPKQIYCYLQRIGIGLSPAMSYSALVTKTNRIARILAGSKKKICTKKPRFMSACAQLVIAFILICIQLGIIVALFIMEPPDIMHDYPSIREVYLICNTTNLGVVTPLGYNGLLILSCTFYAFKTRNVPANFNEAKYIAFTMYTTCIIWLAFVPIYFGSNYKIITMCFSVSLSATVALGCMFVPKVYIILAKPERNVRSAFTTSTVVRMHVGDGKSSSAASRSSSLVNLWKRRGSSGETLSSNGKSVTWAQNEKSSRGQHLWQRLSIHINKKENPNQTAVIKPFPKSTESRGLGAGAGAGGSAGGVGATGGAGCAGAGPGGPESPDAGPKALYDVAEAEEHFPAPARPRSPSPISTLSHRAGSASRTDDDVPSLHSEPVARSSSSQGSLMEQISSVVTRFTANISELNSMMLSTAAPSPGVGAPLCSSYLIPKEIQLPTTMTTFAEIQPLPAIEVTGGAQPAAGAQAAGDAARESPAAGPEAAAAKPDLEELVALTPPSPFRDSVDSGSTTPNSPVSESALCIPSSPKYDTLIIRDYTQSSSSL

SMILES: CN1C(=O)N(c2ccc(C#Cc3ccc(F)cc3)cn2)CC12CC2 [Example 112, 6-[5-(4-Fluoro-phenylethynyl)-pyridin-2-yl]-4-methyl-4,6-diaza-spiro[2.4]heptan-5-one]
- EC50: 80 nM
- Emax: 89%

SMILES: CO[C@H]1C(=O)N(c2ncc(C#Cc3ccccc3)cn2)CC1(C)C (single isomer, unassigned) [Example 129]
- EC50: 18 nM
- Emax: 90%

SMILES: CC1(C)CCN(c2ccc(C#Cc3ccccc3)nn2)C(=O)C1 [Example 151, 4,4-Dimethyl-1-(6-(phenylethynyl)pyridazin-3-yl)piperidin-2-one]
- EC50: 19 nM
- Emax: 130%

SMILES: CN1C(=O)N(c2ncc(C#Cc3ccc(F)c(F)c3)cn2)CC1(C)C [Example 126, 1-[5-(3,4-Difluoro-phenylethynyl)-pyrimidin-2-yl]-3,4,4-trimethyl-imidazolidin-2-one]
- EC50: 23 nM
- Emax: 36%

SMILES: CC1(C)CN(c2ccc(C#Cc3ccc(F)c(F)c3)cn2)C(=O)O1 [Example 33, 3-[5-(3,4-Difluoro-phenylethynyl)-pyridin-2-yl]-5,5-dimethyl-oxazolidin-2-one]
- EC50: 32 nM
- Emax: 44%

SMILES: CN1C(=O)N(c2ncc(C#Cc3cccc(F)c3)cn2)CCC1(C)C [Example 138, 5′-(3-Fluoro-phenylethynyl)-3,4,4-trimethyl-3,4,5,6-tetrahydro-[1,2′]bipyrimidinyl-2-one]
- EC50: 60 nM
- Emax: 67%

SMILES: CN1C(=O)N(c2ccc(C#Cc3ccccc3)cn2)CC1(C)C [Example 16, 3,4,4-Trimethyl-1-(5-phenylethynyl-pyridin-2-yl)-imidazolidin-2-one]
- EC50: 35 nM
- Emax: 103%

SMILES: CC1(C)CCN(c2ccc(C#Cc3cccc(Cl)c3)cn2)C(=O)C1 [Example 89, 5′-(3-Chloro-phenylethynyl)-4,4-dimethyl-3,4,5,6-tetrahydro-[1,2′]bipyridinyl-2-one]
- EC50: 25 nM
- Emax: 78%

SMILES: Cc1cc(C#Cc2ccccc2)cnc1N1CC(C)(C)CC1=O [Example 41, 4,4-Dimethyl-1-(3-methyl-5-phenylethynyl-pyridin-2-yl)-pyrrolidin-2-one]
- EC50: 58 nM
- Emax: 89%

SMILES: CC1(C)CCN(c2ccc(C#Cc3ccccc3)cn2)C(=O)C1 [Example 87, 4,4-Dimethyl-5′-phenylethynyl-3,4,5,6-tetrahydro-[1,2′]bipyridinyl-2-one]
- EC50: 12 nM
- Emax: 89%

SMILES: CCN1C(=O)N(c2ncc(C#Cc3ccc(F)cc3)cn2)CC1(C)C [Example 143, 1-[5-(4-Fluoro-phenylethynyl)-pyrimidin-2-yl]-3-ethyl-4,4-dimethyl-imidazolidin-2-one]
- EC50: 47 nM
- Emax: 68%

SMILES: O=C1O[C@H]2CCCC[C@H]2N1c1ccc(C#Cc2ccccc2)cn1 (racemic) [Example 47, (6SR,7RS)-3-(5-Phenylethynyl-pyridin-2-yl)-hexahydro-benzooxazol-2-one]
- EC50: 36 nM
- Emax: 109%

SMILES: COC1C(=O)N(c2ncc(C#Cc3ccccc3)cn2)CC1(C)C (racemic) [Example 127, (RS)-3-Methoxy-4,4-dimethyl-1-(5-phenylethynyl-pyrimidin-2-yl)-pyrrolidin-2-one]
- EC50: 29 nM
- Emax: 94%

SMILES: O=C1N(c2ccc(C#Cc3ccccc3)cn2)CC2CCCCN12 (racemic) [Example 58, (RS)-2-(5-Phenylethynyl-pyridin-2-yl)-hexahydro-imidazo[1,5-a]pyridin-3-one]
- EC50: 33 nM
- Emax: 43%

SMILES: CC1(C)CC(=O)N(c2ccc(C#Cc3cncc(Cl)c3)cn2)C1 [Example 39, 1-[5-(5-Chloro-pyridin-3-ylethynyl)-pyridin-2-yl]-4,4-dimethyl-pyrrolidin-2-one]
- EC50: 48 nM
- Emax: 98%

SMILES: CC1(C)CC(=O)N(c2ncc(C#Cc3cccc(Cl)c3)cn2)C1 [Example 119, 1-[5-(3-Chloro-phenylethynyl)-pyrimidin-2-yl]-4,4-dimethyl-pyrrolidin-2-one]
- EC50: 11 nM
- Emax: 26%

SMILES: COCC1CN(c2ccc(C#Cc3ccccc3)cn2)C(=O)O1 (racemic) [Example 2, (5RS)-5-Methoxymethyl-3-(5-phenylethynyl-pyridin-2-yl)-oxazolidin-2-one]
- EC50: 47 nM
- Emax: 34%

SMILES: CN1C(=O)N(c2ccc(C#Cc3cccc(F)c3)cn2)[C@@H]2CCC[C@@H]21 (racemic) [Example 109, (3aSR,6aRS)-1-[5-(3-Fluoro-phenylethynyl)-pyridin-2-yl]-3-methyl-hexahydro-cyclopenta-imidazol-2-one]
- EC50: 18 nM
- Emax: 37%

SMILES: CN1C(=O)N(c2cnc(C#Cc3cccc(F)c3)cn2)CCC1(C)C [Example 167, 1-(5-((3-Fluorophenyl)ethynyl)pyrazin-2-yl)-3,4,4-trimethyltetrahydropyrimidin-2(1H)-one]
- EC50: 26 nM
- Emax: 54%

SMILES: CC(C)(C)C1(C)CN(c2ccc(C#Cc3ccccc3)cn2)C(=O)O1 (racemic) [Example 19, (5RS)-5-tert-Butyl-5-methyl-3-(5-phenylethynyl-pyridin-2-yl)-oxazolidin-2-one]
- EC50: 27 nM
- Emax: 85%

SMILES: CN1C(=O)N(c2ncc(C#Cc3cc(F)ccc3F)cn2)CC1(C)C [Example 124, 1-[5-(2,5-Difluoro-phenylethynyl)-pyrimidin-2-yl]-3,4,4-trimethyl-imidazolidin-2-one]
- EC50: 7 nM
- Emax: 43%

SMILES: CN1C(=O)N(c2ccc(C#Cc3cccc(F)c3)cn2)CC12CC2 [Example 113, 6-[5-(3-Fluoro-phenylethynyl)-pyridin-2-yl]-4-methyl-4,6-diaza-spiro[2.4]heptan-5-one]
- EC50: 51 nM
- Emax: 75%

SMILES: CC1(C)OC(=O)N(c2ccc(C#Cc3ccccc3)cn2)C1(C)C [Example 28, 4,4,5,5-Tetramethyl-3-(5-phenylethynyl-pyridin-2-yl)-oxazolidin-2-one]
- EC50: 48 nM
- Emax: 31%

SMILES: CC1(C)CCN(c2ccc(C#Cc3cncc(F)c3)cn2)C(=O)O1 [Example 74, 3-[5-(5-Fluoro-pyridin-3-ylethynyl)-pyridin-2-yl]-6,6-dimethyl-[1,3]oxazinan-2-one]
- EC50: 59 nM
- Emax: 108%

SMILES: CC1(C)CCN(c2ncc(C#Cc3cccc(F)c3)cn2)C(=O)C1 [Example 135, 1-[5-(3-Fluoro-phenylethynyl)-pyrimidin-2-yl]-4,4-dimethyl-piperidin-2-one]
- EC50: 35 nM
- Emax: 47%

SMILES: CN1C(=O)N(c2ccc(C#Cc3cccc(Cl)c3)cn2)CC1(C)C [Example 54, 1-[5-(3-Chloro-phenylethynyl)-pyridin-2-yl]-3,4,4-trimethyl-imidazolidin-2-one]
- EC50: 32 nM
- Emax: 47%

SMILES: CC(C)N1C(=O)N(c2ncc(C#Cc3ccc(F)cc3)cn2)CC1(C)C [Example 142, 1-[5-(4-Fluoro-phenylethynyl)-pyrimidin-2-yl]-3-isopropyl-4,4-dimethyl-imidazolidin-2-one]
- EC50: 78 nM
- Emax: 74%

SMILES: CN1C(=O)N(c2ccc(C#Cc3ccccc3)nn2)[C@@H]2CCC[C@@H]21 (racemic) [Example 170, (3aRS,6aSR)-1-Methyl-3-(6-phenylethynyl-pyridazin-3-yl)-hexahydro-cyclopentaimidazol-2-one]
- EC50: 13 nM
- Emax: 105%
